Molecular target: human adenosine A2b receptor (Homo sapiens (Human), UniProt P29275)
Experiment: Cellular in vitro reporter gene test for A2b receptor activity (CHO-K1, CRE-luciferase, NECA stimulation)
Format: cell-based
Settings: recombinant CHO-K1 cell line, CRE-luciferase reporter, antagonism of EC50 concentration of NECA; in some cases means of several determinations, rounded to two significant figures; read-out: A2b receptor IC50
Outline: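 CHO-K1 cells with CRE-driven luciferase; antagonists co-incubated with NECA at its EC50, determined in a pre-experiment on each test day. Luciferase read by luminescence 3 h after NECA addition.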

human adenosine A2b receptor, sequence (P29275 whole entry): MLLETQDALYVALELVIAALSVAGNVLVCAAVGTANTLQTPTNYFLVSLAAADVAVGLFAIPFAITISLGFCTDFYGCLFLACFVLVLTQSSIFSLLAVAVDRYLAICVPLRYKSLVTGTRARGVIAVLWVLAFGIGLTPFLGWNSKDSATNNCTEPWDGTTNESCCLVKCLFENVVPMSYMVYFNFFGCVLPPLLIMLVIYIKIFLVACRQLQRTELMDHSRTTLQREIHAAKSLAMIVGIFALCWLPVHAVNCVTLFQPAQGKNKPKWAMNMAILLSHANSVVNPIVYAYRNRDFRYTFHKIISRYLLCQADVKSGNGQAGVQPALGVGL

Compound	IC50
CCn1c(=O)c2c(C)c(CN3CCCNC3=O)sc2n(CCC(F)(F)F)c1=O [Example 107, 3-Ethyl-5-methyl-6-[(2-oxotetrahydropyrimidin-1(2H)-yl)methyl]-1-(3,3,3-trifluoropropyl)thieno[2,3-d]pyrimidine-2,4(1H,3H)-dione]	11 nM
COCCn1c(=O)c2c(C)c(Cn3cc[nH]c3=O)sc2n(CC2CCCO2)c1=O (racemic) [Example 346, 3-(2-Methoxyethyl)-5-methyl-6-[(2-oxo-2,3-dihydro-1H-imidazol-1-yl)methyl]-1-(tetrahydrofuran-2-ylmethyl)thieno[2,3-d]pyrimidine-2,4(1H,3H)-dione]	37 nM
COCCn1c(=O)n(C(C)C(F)(F)F)c(=O)c2c(C)c(CN3CCNC3=NC(=O)OC)sc21 (single isomer, unassigned) [Example 515, Methyl [1-{[1-(2-methoxyethyl)-5-methyl-2,4-dioxo-3-(1,1,1-trifluoropropan-2-yl)-1,2,3,4-tetrahydrothieno[2,3-d]pyrimidin-6-yl]methyl}imidazolidin-2-ylidene]carbamate]	24 nM
Cc1c(CN2CCNC2=O)sc2c1c(=O)n(CC(F)F)c(=O)n2CC1CCCO1 (racemic) [Example 219, 3-(2,2-Difluoroethyl)-5-methyl-6-[(2-oxoimidazolidin-1-yl)methyl]-1-(tetrahydrofuran-2-ylmethyl)thieno[2,3-d]pyrimidine-2,4(1H,3H)-dione]	19 nM
CCOCCn1c(=O)c2c(C)c(CN3CCNC3=S)sc2n(CCOC)c1=O [Example 302, 3-(2-Ethoxyethyl)-1-(2-methoxyethyl)-5-methyl-6-[(2-thioxoimidazolidin-1-yl)methyl]thieno[2,3-d]pyrimidine-2,4(1H,3H)-dione]	14 nM
Cc1c(Cn2[nH]ccc2=O)sc2c1c(=O)n(C(C)C)c(=O)n2CCC(F)(F)F [Example 132, 3-Isopropyl-5-methyl-6-[(5-oxo-2,5-dihydro-1H-pyrazol-1-yl)methyl]-1-(3,3,3-trifluoropropyl)thieno[2,3-d]pyrimidine-2,4(1H,3H)-dione]	20 nM
COC(=O)N=C1NCCN1Cc1sc2c(c1C)c(=O)n(CC(C)(C)C)c(=O)n2CC1CCCO1 (single isomer, unassigned) [Example 464, Methyl [1-{[3-(2,2-dimethylpropyl)-5-methyl-2,4-dioxo-1-(tetrahydrofuran-2-ylmethyl)-1,2,3,4-tetrahydrothieno[2,3-d]pyrimidin-6-yl]methyl}imidazolidin-2-ylidene]carbamate]	9.9 nM
Cc1c(CN2CCNC2=NC#N)sc2c1c(=O)n(CC(F)(F)F)c(=O)n2CC1CCO1 (single isomer, unassigned) [Example 450, [1-{[5-Methyl-1-(oxetan-2-ylmethyl)-2,4-dioxo-3-(2,2,2-trifluoroethyl)-1,2,3,4-tetrahydrothieno[2,3-d]pyrimidin-6-yl]methyl}imidazolidin-2-ylidene]cyanamide]	14 nM
Cc1c(Cn2cc[nH]c2=O)sc2c1c(=O)n(C(C)C)c(=O)n2CC1CCCO1 (single isomer, unassigned) [Example 249, 3-Isopropyl-5-methyl-6-[(2-oxo-2,3-dihydro-1H-imidazol-1-yl)methyl]-1-(tetrahydrofuran-2-ylmethyl)thieno[2,3-d]pyrimidine-2,4(1H,3H)-dione]	41 nM
Cc1c(Cn2nc[nH]c2=O)sc2c1c(=O)n(CC(F)(F)F)c(=O)n2CC1CCCO1 (single isomer, unassigned) [Example 436, 5-Methyl-6-[(5-oxo-4,5-dihydro-1H-1,2,4-triazol-1-yl)methyl]-1-(tetrahydrofuran-2-ylmethyl)-3-(2,2,2-trifluoroethyl)thieno[2,3-d]pyrimidine-2,4(1H,3H)-dione]	65 nM
COC(C)(C)Cn1c(=O)c2c(C)c(CN3CCN(C)C3=O)sc2n(CCC(F)(F)F)c1=O [Example 338, 3-(2-Methoxy-2-methylpropyl)-5-methyl-6-[(3-methyl-2-oxoimidazolidin-1-yl)methyl]-1-(3,3,3-trifluoropropyl)thieno[2,3-d]pyrimidine-2,4(1H,3H)-dione]	120 nM

Other lines, results leading:

IC50	Compound
5.6 nM	CCn1c(=O)c2c(C(F)(F)F)c(CN3CCCS3(=O)=O)sc2n(CCC(F)(F)F)c1=O [Example 19, 6-[(1,1-Dioxido-1,2-thiazolidin-2-yl)methyl]-3-ethyl-5-(trifluoromethyl)-1-(3,3,3-trifluoropropyl)thieno[2,3-d]pyrimidine-2,4(1H,3H)-dione]
5.6 nM	Cc1c(CN2CCNC2=S)sc2c1c(=O)n(CC(F)(F)F)c(=O)n2CC1CCCO1 (single isomer, unassigned) [Example 299, 5-Methyl-1-(tetrahydrofuran-2-ylmethyl)-6-[(2-thioxoimidazolidin-1-yl)methyl]-3-(2,2,2-trifluoroethyl)thieno[2,3-d]pyrimidine-2,4(1H,3H)-dione]
9.7 nM	COCCn1c(=O)n(CC2CC2)c(=O)c2c(C)c(CN3CCNC3=O)sc21 [Example 92]
6.6 nM	CCn1c(=O)c2c(C)c(CN3CCNC3=O)sc2n(CCCCF)c1=O [Example 52, 3-Ethyl-1-(4-fluorobutyl)-5-methyl-6-[(2-oxoimidazolidin-1-yl)methyl]thieno[2,3-d]pyrimidine-2,4(1H,3H)-dione]
9.7 nM	COCCn1c(=O)n(CCc2ccccc2)c(=O)c2c(C)c(CN3CCC3=O)sc21 [Example 1, 1-(2-Methoxyethyl)-5-methyl-6-[(2-oxoazetidin-1-yl)methyl]-3-(2-phenylethyl)thieno[2,3-d]pyrimidine-2,4(1H,3H)-dione]
7.7 nM	COCCn1c(=O)n(CC(F)F)c(=O)c2c(C)c(CN3CCNC3=S)sc21 [Example 43]
3.2 nM	CCn1c(=O)c2c(C)c(CN3CCNC(=O)C3=O)sc2n(CCC(F)(F)F)c1=O [Example 394, 6-[(2,3-Dioxopiperazin-1-yl)methyl]-3-ethyl-5-methyl-1-(3,3,3-trifluoropropyl)thieno[2,3-d]pyrimidine-2,4(1H,3H)-dione]
6.8 nM	CCn1c(=O)c2c(C(F)F)c(CN3CCNC3=O)sc2n(CCC(F)(F)F)c1=O [Example 100, 5-(Difluoromethyl)-3-ethyl-6-[(2-oxoimidazolidin-1-yl)methyl]-1-(3,3,3-trifluoropropyl)thieno[2,3-d]pyrimidine-2,4(1H,3H)-dione]
1.3 nM	COCCn1c(=O)n(CCC=C(F)F)c(=O)c2c(C)c(CN3CCNC3=O)sc21 [Example 322, 3-(4,4-Difluorobut-3-en-1-yl)-1-(2-methoxyethyl)-5-methyl-6-[(2-oxoimidazolidin-1-yl)methyl]thieno[2,3-d]pyrimidine-2,4(1H,3H)-dione]
7.9 nM	CCn1c(=O)c2c(C)c(CN3CCNC3=NC(=O)OC)sc2n(CC2CCCO2)c1=O (single isomer, unassigned) [Example 376, Methyl [1-{[3-ethyl-5-methyl-2,4-dioxo-1-(tetrahydrofuran-2-ylmethyl)-1,2,3,4-tetrahydrothieno[2,3-d]pyrimidin-6-yl]methyl}imidazolidin-2-ylidene]carbamate]
6.7 nM	Cc1c(CN2CCNC2=O)sc2c1c(=O)n(CC(C)C)c(=O)n2CCF [Example 88, 1-(2-Fluoroethyl)-3-isobutyl-5-methyl-6-[(2-oxoimidazolidin-1-yl)methyl]thieno[2,3-d]pyrimidine-2,4(1H,3H)-dione]

Source: US10428083B2, “Heterocyclylmethyl-thienouracile as antagonists of the adenosine-A2B-receptor” (BAYER PHARMA AKTIENGESELLSCHAFT, priority 2015, dated 2019)
